The target in one assay is human SSTR-1 (Homo sapiens, UniProt P30872). As to the kind of experiment: Somatostatin receptor binding assay, hSSTR-1.
For a further assay, the target named is human SSTR-3 (Homo sapiens, UniProt P32745). Description: Somatostatin receptor binding assay, hSSTR-3.
Assay [1] deals with cells derived from prolactin-secreting pituitary adenomas. As to the kind of experiment: Reduction of prolactin secretion from prolactinoma cell cultures. In kind it is cell-based, human. The conditions noted are these: for effect on prolactin release (in words): tumor 1 adenomatous cell cultures, 10-100 nM; for effect on prolactin release (in words) / suppression of prolactin secretion: 3 hours; for response of cells from the four large male tumors (in words): tumors 1, 2, 3 and 4 (macroprolactinomas of male patients); for suppression of prolactin release / effect on prolactin production (in words): large tumor 4 cell cultures; for suppression of prolactin secretion: tumor 1 cell cultures.

Positions of bridges follow the written chain, without caps; N, C: chain ends. Non-standard residues stand in square brackets, D forms with d. Residues, ends and D or L forms follow the SMILES beside them.

Chain of human SSTR-3 (P32745 whole entry): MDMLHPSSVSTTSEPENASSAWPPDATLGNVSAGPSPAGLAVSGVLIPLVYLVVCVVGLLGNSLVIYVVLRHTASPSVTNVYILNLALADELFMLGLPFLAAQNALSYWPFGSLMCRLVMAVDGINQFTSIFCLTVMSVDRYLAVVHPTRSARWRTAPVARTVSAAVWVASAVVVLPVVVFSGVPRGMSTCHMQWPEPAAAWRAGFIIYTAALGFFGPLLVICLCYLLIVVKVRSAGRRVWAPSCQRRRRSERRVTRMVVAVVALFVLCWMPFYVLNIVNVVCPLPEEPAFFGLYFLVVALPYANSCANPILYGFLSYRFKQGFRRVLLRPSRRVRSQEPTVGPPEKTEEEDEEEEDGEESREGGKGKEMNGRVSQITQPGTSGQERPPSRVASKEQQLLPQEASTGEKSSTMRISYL
Chain of human SSTR-1 (P30872 whole entry): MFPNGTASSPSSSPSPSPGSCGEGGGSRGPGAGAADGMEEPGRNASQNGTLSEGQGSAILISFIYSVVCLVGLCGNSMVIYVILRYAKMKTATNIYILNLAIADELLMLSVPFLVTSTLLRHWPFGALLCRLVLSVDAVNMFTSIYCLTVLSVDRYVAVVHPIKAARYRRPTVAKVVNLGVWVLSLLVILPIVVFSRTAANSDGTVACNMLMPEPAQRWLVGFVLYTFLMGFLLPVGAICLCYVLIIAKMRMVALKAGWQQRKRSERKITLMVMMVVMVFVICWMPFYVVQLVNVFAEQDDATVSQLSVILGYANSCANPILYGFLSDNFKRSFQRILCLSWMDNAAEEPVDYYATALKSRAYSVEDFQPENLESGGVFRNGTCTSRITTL

One may read the Ki as the equilibrium dissociation constant of an inhibitor or competing ligand from its target. At human SSTR-1, `CC(C)[C@@H]1NC(=O)[C@H](CCCCN)NC(=O)[C@@H](Cc2c[nH]c3ccccc23)NC(=O)[C@H](Cc2ccc(O)cc2)NC(=O)[C@@H](NC(=O)[C@H](N)Cc2ccc3ccccc3c2)CSSC[C@@H](C(=O)N[C@H](C(N)=O)[C@@H](C)O)NC1=O` [Lanreotide] registered a Ki of 2410 nM. The compound further displayed a Ki at human SSTR-3 of 97.9 nM. In assay [1], the “effect on prolactin release (in words)” value is reported as “did not affect prolactin release” and the “response of cells from the four large male tumors (in words)” value (shortened to “response of cells”) is “failed to respond”.

Consider `CC[C@@H]1NC(=O)[C@H](CCCCN)NC(=O)[C@@H](Cc2c[nH]c3ccccc23)NC(=O)[C@H](Cc2ccc(O)cc2)NC(=O)[C@@H](NC(=O)[C@H](N)Cc2ccccc2)CSSC[C@@H](C(=O)N[C@H](C(N)=O)[C@@H](C)O)NC1=O` [BIM-23023], for which the “effect on prolactin release (in words)” value in assay [1] is given as “did not affect prolactin release”.

With `C[C@@H](O)[C@@H]1NC(=O)[C@H](CCCCN)NC(=O)[C@@H](Cc2c[nH]c3ccccc23)NC(=O)[C@H](Cc2ccccc2)NC(=O)[C@@H](NC(=O)[C@H](N)Cc2ccccc2)CSSC[C@@H](C(=O)N[C@H](CO)[C@@H](C)O)NC1=O` [Octreotide], the “response of cells” value in assay [1] is recorded as “failed to respond”.

Regarding `C[C@@H](O)[C@@H]1NC(=O)[C@H](CCCCN)NC(=O)[C@@H](Cc2c[nH]c3ccccc23)NC(=O)[C@H](Cc2ccccc2)NC(=O)[C@H](Cc2ccccc2)NC(=O)[C@@H](N)CSSC[C@@H](C(N)=O)NC(=O)[C@H](Cc2ccccc2)NC1=O` [BIM-23268, H-Cys-Phe-Phe-D-Trp-Lys-Thr-Phe-Cys-NH2] (H-CFF[dW]KTFC-NH2; disulfide 1-8), the suppression of prolactin entry in assay [1] (large tumor 3 cell cultures, 10 nM and 100 nM, dose dependent, p<0.05) is reported as “up to 29%”. In assay [1] (p<0.05), the “suppression of prolactin release” value was “more than 30%”. For the same compound, the “suppression of prolactin secretion” value in assay [1] (10 nM, p<0.05) is recorded as 36%. Besides, in assay [1] (tumor 2 cell cultures, 10 nM, p<0.0005), the “inhibition of prolactin release versus controls” value is given as 38%. Also, the “response of cells” value in assay [1] is given as “suppression of prolactin secretion”.

As to `C[C@@H](O)[C@H](NC(=O)[C@H](Cc1ccccc1)NC(=O)[C@@H](NC(=O)[C@H](CCCCN)NC(=O)[C@@H](Cc1c[nH]c2ccccc12)NC(=O)[C@H](Cc1ccccc1)NC(=O)[C@H](Cc1ccccc1)NC(=O)[C@H](N)Cc1ccccc1)[C@@H](C)O)C(N)=O` [BIM-23052, H-D-Phe-Phe-Phe-D-Trp-Lys-Thr-Phe-Thr-NH2] (H-[dF]FF[dW]KTFT-NH2), the “suppression of prolactin release” value in assay [1] (p<0.05) is reported as “more than 30%”. Also, the “suppression of prolactin secretion” value in assay [1] (10 nM, p<0.05) was 33%. In assay [1], the “response of cells” value is “suppression of prolactin secretion”.

Consider `CC[C@@H]1NC(=O)[C@H](CCCCN)NC(=O)[C@@H](Cc2c[nH]c3ccccc23)NC(=O)[C@H](Cc2ccc(O)cc2)NC(=O)[C@@H](NC(=O)[C@@H](Cc2ccccc2)NC(=O)CN2CCN(CCO)CC2)CSSC[C@@H](C(=O)N[C@H](C(N)=O)[C@@H](C)O)NC1=O` [BIM-23190], for which, in assay [1], the “effect on prolactin production (in words)” value is on record as “modestly stimulated prolactin production”, the “effect on prolactin release (in words)” value is on record as “did not affect prolactin release” and the “response of cells” value is “failed to respond”.

As to `CC[C@@H]1NC(=O)[C@H](CCCCN)NC(=O)[C@@H](Cc2c[nH]c3ccccc23)NC(=O)[C@H](Cc2ccc(O)cc2)NC(=O)[C@@H](NC(=O)[C@@H](Cc2ccccc2)NS(=O)(=O)CCN2CCN(CCO)CC2)CSSC[C@@H](C(=O)N[C@H](C(N)=O)[C@@H](C)O)NC1=O` [BIM-23197], in assay [1], the “effect on prolactin production (in words)” value is given as “modestly stimulated prolactin production”, the “effect on prolactin release (in words)” value is given as “did not affect prolactin release” and the “response of cells” value is given as “failed to respond”.
